According to ChEMBL document CHEMBL1201862, “PubChem BioAssay data set” (2004):
The source made the active and inactive calls.

How the values were obtained:
[1] = target: T1, Orexin/Hypocretin receptor type 1 (Homo sapiens, UniProt O43613); assay: Homogeneous Time Resolved Fluorescence (HTRF)-based cell-based high throughput dose response assay for antagonists of the orexin 1 receptor (OX1R; HCRTR1). [Related pubchem assays (depositor defined):AID434989, AID435008, AID463079, AID485270, AID492963, AID492964, AID492965, AID493232, AID504717, AID504718]; format: functional
T1 sequence (O43613 whole entry): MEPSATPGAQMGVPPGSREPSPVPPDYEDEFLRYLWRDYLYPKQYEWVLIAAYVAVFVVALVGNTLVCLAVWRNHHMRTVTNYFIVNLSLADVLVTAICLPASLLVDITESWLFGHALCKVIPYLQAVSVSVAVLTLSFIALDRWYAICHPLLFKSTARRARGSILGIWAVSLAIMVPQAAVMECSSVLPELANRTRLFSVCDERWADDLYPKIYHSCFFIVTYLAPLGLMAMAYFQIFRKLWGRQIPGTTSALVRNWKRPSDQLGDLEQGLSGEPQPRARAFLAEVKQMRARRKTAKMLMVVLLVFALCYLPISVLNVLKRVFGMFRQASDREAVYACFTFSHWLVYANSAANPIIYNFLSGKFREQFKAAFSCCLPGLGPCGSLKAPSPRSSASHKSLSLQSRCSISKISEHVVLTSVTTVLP

Orexin receptor type 2 [2] = target: T2, Orexin receptor type 2 (Homo sapiens, UniProt O43614); assay: Counterscreen assay for antagonists of the orexin 1 receptor (OX1R; HCRTR1): Homogeneous Time Resolved Fluorescence (HTRF)-based cell-based dose response assay for antagonists of the orexin 2 receptor (OX2R; HCRTR2), run by assay provider.; format: functional
T2 sequence (O43614 whole entry): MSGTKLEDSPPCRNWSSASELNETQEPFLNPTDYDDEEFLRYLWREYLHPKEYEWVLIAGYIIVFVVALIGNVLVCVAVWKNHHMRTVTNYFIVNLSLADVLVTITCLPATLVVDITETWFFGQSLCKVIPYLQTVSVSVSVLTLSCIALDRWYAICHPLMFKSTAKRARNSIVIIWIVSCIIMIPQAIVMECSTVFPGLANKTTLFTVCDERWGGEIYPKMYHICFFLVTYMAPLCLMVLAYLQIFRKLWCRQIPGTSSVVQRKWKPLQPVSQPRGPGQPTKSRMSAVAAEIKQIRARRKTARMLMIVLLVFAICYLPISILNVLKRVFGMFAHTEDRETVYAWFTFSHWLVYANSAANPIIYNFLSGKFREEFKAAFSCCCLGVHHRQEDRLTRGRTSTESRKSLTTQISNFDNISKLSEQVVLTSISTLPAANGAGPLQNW

[3] = (§1) Counterscreen for antagonists of the orexin 1 receptor (OX1R; HCRTR1): Fluorescence-based cell-based high throughput dose response assay to identify antagonists of the parental CHO cell line. [Related pubchem assays (depositor defined):AID434989, AID435008, AID463079, AID485270, AID492963, AID492964, AID492965, AID493232, AID504699, AID504701]; format: functional
CHO-K1 = assay: as §1, with “Homogeneous time resolved fluorescence (HTRF)-based” for “Fluorescence-based”, “cell-based” for “cell-based high throughput”, “CHO-K1” for “CHO”; format: functional; conditions: Cricetulus griseus;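 note: potency for inhibition of ATP-stimulated IP1 production as antagonists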
[4] = target: T1, Orexin/Hypocretin receptor type 1; assay: Fluorescence-based cell-based high throughput dose response assay for antagonists of the orexin 1 receptor (OX1R; HCRTR1). [Related pubchem assays (depositor defined):AID434989, AID435008, AID463079, AID485270, AID492963, AID492964, AID492965, AID493232, AID504717, AID504718]; format: functional
Orexin receptor type 2 [5] = target: T2, Orexin receptor type 2; assay: Counterscreen assay for antagonists of the orexin 1 receptor (OX1R; HCRTR1): Fluorescence-based cell-based dose response assay for antagonists of the orexin 2 receptor (OX2R; HCRTR2), run by assay provider.; format: functional
[6] = target: T3, DNA dC->dU-editing enzyme APOBEC-3G (Homo sapiens, UniProt Q9HC16); assay: APOBEC3G deaminase inhibitors, SAR follow-up, biochemical, fluorescence, single-stranded DNA substrate (AID 602136); format: functional; conditions: read-out: IC50_Mean
T3 sequence (Q9HC16 whole entry): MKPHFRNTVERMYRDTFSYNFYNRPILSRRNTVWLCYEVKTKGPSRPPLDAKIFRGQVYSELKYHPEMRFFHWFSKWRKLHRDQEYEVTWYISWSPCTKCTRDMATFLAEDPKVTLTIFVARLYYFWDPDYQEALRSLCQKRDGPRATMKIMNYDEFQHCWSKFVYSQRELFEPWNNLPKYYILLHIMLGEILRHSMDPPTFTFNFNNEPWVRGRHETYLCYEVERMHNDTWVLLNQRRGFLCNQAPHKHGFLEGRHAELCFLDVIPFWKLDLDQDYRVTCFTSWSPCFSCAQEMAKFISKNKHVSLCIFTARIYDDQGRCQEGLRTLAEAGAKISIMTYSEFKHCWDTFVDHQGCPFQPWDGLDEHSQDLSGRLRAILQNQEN

[7] = target: T4, DNA dC->dU-editing enzyme APOBEC-3A (Homo sapiens, UniProt P31941); assay: SAR analysis of small molecule inhibitors of APOBEC3A DNA Deaminase via a fluorescence-based single-stranded DNA deaminase assay.; format: functional; conditions: read-out: IC50_Mean
T4 sequence (P31941 whole entry): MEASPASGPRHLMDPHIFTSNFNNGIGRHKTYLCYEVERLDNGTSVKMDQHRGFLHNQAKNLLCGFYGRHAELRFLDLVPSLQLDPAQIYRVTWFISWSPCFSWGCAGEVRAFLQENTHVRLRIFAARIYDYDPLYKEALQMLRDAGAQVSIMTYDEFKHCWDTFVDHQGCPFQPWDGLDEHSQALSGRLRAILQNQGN

[8] = target: T4, DNA dC->dU-editing enzyme APOBEC-3A; assay: SAR analysis of small molecule inhibitors of APOBEC3A DNA Deaminase via a fluorescence-based single-stranded DNA deaminase assay - Set 2.; format: functional; conditions: read-out: IC50_Mean
[9] = target: T3, DNA dC->dU-editing enzyme APOBEC-3G; assay: SAR analysis of small molecule inhibitors of APOBEC3G DNA Deaminase via a fluorescence-based single-stranded DNA deaminase assay - Set 2.; format: functional; conditions: read-out: IC50_Mean
[10] = target: T5, Alkaline phosphatase, tissue-nonspecific isozyme (Homo sapiens, UniProt P05186)
T5 sequence (P05186 whole entry): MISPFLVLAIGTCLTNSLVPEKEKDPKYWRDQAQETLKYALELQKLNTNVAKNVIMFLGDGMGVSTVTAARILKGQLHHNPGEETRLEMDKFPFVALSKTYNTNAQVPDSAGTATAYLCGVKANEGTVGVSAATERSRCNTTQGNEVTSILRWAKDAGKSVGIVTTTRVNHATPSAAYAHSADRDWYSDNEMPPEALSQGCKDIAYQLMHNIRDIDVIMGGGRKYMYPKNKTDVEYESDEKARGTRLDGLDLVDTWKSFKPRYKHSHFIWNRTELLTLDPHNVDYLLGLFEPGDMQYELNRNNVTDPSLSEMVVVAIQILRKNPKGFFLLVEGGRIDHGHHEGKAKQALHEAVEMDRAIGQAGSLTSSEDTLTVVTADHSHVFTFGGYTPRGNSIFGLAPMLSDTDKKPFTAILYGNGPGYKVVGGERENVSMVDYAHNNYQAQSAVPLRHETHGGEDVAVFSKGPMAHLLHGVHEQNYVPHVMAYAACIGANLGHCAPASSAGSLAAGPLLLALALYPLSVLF

[11] = target: Voltage-gated N-type calcium channel alpha-1B subunit/Amyloid beta A4 precursor protein-binding family A member 1 (Homo sapiens, UniProt Q00975+Q02410); format: protein assay
HEK293 [12] = assay: HEK cell cytotoxicity by LDH release, dose response, cytotoxicity control for IDE activator project, fluorescence, HEK cells (AID 588440); format: functional, cell-based; conditions: Homo sapiens;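 note: cytotoxicity by LDH release measuring loss of membrane integrity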
Insulin-degrading enzyme [13] = target: T6, Insulin-degrading enzyme (Homo sapiens, UniProt P14735); assay: activators of recombinant IDE enzyme, dose response, counter-screen for IDE activator project, biochemical, fluorescence polarization (AID 588681)
T6 sequence (P14735 whole entry): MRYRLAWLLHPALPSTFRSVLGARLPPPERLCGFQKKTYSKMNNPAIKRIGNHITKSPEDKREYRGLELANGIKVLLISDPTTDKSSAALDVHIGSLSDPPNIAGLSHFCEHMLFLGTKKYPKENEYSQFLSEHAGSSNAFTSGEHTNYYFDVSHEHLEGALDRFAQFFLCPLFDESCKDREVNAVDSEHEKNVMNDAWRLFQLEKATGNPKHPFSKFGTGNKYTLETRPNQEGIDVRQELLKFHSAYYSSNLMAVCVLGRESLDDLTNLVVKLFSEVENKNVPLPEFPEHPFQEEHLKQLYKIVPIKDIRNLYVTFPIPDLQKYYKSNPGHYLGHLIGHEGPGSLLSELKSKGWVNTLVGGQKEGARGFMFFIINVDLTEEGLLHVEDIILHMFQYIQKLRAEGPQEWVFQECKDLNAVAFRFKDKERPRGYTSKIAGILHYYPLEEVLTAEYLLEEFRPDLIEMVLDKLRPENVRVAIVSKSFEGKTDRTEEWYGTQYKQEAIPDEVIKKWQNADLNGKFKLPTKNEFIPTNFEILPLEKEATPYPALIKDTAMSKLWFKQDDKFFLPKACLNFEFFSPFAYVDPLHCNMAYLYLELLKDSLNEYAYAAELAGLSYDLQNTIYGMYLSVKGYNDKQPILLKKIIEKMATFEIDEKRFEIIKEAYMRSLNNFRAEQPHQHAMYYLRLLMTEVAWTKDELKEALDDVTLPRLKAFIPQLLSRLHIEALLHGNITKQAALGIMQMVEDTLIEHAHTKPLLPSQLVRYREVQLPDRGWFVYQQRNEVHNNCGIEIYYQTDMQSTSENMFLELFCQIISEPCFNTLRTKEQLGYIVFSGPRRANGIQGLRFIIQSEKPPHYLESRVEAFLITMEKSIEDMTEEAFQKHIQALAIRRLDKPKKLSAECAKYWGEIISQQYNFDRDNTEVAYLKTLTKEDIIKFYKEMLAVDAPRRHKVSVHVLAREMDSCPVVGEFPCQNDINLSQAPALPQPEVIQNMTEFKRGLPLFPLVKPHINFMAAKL

[14] = HEp-2 cell cytotoxicity, dose response, cytotoxicity control for RSV inhibitor project, HTS (AID 2410); format: functional; conditions: human respiratory syncytial virus
Insulin-degrading enzyme [15] = target: T6, Insulin-degrading enzyme; assay: activators of endogenous IDE in HEK cells, dose response, cell-based, fluorescence polarization (AID 588439); format: functional
HEK293 [16] = assay: optical interference in Abeta FP readout, dose response, artefact control for IDE activator project, biochemical, fluorescence polarization (AID 588442); format: functional, cell-based; conditions: Homo sapiens
[17] = target: Mitochondrial peptide methionine sulfoxide reductase (Bos taurus, UniProt P54149); format: functional;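 note: absorbance read-out, biochemical high-throughput dose-response screen for MsrA inhibitors, confirmatory; recombinant bovine MsrA coupled to E. coli TrxB with NADPH and selenocystamine; potency is for inhibitors of MsrA activity on DMSO substrate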
Mitochondrial peptide methionine sulfoxide reductase, sequence (P54149 whole entry): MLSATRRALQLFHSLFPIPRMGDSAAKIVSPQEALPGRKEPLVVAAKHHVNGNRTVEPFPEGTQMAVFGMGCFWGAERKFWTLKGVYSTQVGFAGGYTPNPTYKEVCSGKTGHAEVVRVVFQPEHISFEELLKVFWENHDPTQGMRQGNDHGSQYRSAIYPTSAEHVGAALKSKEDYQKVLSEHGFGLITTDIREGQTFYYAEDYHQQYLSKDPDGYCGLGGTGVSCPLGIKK

[18] = target: T7, Apoptotic protease-activating factor 1 (Homo sapiens, UniProt O14727); assay: SAR analysis of small molecule Activators of Apaf-1 in a Fluorescent assay.; format: functional; conditions: read-out: EC50_Mean;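 note: caspase-3 cleavage of fluorogenic Rh110 DEVD substrate downstream of apoptosome activation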
T7 sequence (O14727 whole entry): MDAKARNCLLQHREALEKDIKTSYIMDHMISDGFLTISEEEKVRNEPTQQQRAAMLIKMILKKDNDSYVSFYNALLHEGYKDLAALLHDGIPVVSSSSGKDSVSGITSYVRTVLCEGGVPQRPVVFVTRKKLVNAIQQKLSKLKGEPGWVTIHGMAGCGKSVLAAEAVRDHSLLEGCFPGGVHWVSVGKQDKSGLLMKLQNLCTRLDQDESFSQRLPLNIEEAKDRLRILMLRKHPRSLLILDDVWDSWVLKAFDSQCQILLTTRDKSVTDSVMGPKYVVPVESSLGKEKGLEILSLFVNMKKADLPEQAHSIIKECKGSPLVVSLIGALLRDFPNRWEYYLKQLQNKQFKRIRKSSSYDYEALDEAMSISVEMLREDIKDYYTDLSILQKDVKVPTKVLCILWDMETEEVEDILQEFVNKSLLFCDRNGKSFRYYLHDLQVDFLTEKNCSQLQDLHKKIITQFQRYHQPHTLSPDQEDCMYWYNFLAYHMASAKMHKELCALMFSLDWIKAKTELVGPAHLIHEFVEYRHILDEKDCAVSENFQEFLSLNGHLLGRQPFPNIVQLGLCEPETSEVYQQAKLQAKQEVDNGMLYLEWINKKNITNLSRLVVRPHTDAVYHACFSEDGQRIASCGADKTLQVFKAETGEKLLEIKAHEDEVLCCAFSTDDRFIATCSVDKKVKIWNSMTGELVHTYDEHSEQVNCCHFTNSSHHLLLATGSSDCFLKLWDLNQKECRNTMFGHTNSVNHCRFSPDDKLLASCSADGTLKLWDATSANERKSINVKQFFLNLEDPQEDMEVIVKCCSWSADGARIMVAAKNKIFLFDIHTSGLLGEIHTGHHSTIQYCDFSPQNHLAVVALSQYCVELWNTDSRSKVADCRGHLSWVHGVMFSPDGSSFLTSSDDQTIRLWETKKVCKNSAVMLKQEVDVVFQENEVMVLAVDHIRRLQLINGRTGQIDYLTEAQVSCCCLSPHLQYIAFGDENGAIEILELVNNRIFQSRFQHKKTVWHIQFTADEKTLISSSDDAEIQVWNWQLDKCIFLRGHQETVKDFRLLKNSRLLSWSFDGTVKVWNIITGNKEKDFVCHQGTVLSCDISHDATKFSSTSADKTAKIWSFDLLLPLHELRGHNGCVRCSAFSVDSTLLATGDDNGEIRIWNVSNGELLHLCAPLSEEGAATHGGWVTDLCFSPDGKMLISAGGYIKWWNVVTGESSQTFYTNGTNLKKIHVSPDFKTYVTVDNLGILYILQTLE

[19] = target: Ras and Rab interactor 1/Tyrosine-protein kinase ABL1 (Homo sapiens, UniProt P00519+Q13671); format: functional;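 note: biochemical TR-FRET dose-response test measuring inhibition of binding between Rin1 and Abl proteins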
Ras and Rab interactor 1/Tyrosine-protein kinase ABL1, sequence (P00519 whole entry): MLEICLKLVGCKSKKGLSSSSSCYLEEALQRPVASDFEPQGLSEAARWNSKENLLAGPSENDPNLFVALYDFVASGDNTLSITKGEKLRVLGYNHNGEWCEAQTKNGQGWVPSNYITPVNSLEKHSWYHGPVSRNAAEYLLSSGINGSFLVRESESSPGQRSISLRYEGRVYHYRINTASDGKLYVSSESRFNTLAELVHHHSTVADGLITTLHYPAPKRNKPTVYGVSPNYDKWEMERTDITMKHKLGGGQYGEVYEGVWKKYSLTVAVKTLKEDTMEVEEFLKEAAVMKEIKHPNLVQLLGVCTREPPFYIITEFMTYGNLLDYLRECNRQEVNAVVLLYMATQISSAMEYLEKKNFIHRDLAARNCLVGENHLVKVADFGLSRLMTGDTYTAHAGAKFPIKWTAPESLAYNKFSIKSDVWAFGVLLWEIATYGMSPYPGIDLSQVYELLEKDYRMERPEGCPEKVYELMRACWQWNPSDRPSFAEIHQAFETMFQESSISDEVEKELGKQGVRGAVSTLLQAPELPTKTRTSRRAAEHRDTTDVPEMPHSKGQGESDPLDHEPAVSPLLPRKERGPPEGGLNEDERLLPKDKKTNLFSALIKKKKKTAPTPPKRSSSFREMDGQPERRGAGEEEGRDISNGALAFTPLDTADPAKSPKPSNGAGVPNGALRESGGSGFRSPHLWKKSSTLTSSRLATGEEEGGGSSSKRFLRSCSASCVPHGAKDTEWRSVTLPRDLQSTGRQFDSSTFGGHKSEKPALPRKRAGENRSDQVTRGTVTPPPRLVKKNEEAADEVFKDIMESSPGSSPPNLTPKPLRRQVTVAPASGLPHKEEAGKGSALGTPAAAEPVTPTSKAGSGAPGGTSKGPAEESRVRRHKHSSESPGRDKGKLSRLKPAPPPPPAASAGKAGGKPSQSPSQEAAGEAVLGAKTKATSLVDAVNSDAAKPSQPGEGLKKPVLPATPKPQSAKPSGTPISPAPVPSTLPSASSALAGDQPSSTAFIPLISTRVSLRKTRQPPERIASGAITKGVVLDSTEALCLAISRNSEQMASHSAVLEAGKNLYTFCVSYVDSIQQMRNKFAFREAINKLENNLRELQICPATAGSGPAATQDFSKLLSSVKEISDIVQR
Ras and Rab interactor 1/Tyrosine-protein kinase ABL1, sequence (Q13671 whole entry): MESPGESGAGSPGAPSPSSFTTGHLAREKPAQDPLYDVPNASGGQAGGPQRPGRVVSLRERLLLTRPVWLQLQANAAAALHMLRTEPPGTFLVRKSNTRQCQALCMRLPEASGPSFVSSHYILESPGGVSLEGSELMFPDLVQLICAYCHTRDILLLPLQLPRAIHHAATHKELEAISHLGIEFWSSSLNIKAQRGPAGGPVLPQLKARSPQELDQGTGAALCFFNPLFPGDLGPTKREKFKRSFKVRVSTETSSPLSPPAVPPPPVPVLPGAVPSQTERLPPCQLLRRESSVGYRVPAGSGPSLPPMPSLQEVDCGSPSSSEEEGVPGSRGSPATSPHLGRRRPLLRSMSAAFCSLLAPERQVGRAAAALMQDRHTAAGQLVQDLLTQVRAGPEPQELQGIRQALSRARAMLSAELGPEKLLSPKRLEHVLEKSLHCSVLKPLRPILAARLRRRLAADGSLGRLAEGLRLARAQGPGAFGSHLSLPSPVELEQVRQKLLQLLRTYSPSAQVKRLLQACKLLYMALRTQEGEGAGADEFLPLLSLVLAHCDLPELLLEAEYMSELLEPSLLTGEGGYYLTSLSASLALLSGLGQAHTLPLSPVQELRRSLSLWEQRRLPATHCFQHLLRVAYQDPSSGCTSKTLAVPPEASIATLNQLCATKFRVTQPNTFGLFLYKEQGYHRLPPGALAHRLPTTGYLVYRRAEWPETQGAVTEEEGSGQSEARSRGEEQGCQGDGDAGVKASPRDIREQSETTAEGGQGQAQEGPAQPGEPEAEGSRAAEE

[20] = AlphaScreen signal interference compounds, dose response, artefact control for ARNT-TACC3 interaction inhibitor project, biochemical, luminescence, cherry-pick (AID 651705); format: functional;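 note: AlphaScreen bead proximity signal that flags compounds interfering with the detection technology; potency reflects signal decrease which marks the compound as an assay artifact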

Cc1ccc(NC2CCCN(C(=O)c3cn(C)c4ccccc34)C2)cc1C (configuration not stated)
IC50 [1]: 0.771 µM (active)
IC50 (Orexin receptor type 2 [2]): 1.64 µM (active)
IC50 [3]: > 49.7 µM (inactive)
IC50 (CHO-K1): > 66.2 µM (inactive)
IC50 [4]: 8.18 µM (active)
IC50 (Orexin receptor type 2 [5]): 7.1 µM (active)

Cc1ccc(C=Nn2c(-c3ccco3)n[nH]c2=S)s1
IC50 [6]: 2.09 µM (active)
IC50 [7]: > 99 µM (inactive)
IC50 [8]: 85.5 µM (inactive)
IC50 [9]: 3.67 µM (active)

CCN(CC)c1ccc(NC(=O)Cn2c(C(C)NC(=O)c3ccccc3)nc3ccccc32)cc1 (configuration not stated)
EC50 [10]: > 100 µM (not active)
IC50 [11]: > 50 µM (inactive)
IC50 [1]: 0.106 µM (active)
IC50 (Orexin receptor type 2 [2]): > 50 µM (inactive)
IC50 [3]: > 49.7 µM (inactive)
IC50 (CHO-K1): > 66.2 µM (inactive)
IC50 [4]: 0.382 µM (active)
IC50 (Orexin receptor type 2 [5]): > 88.8 µM (inactive)

Oc1ccc(C2Nc3cccc4cccc(c34)N2)cc1
IC50 (HEK293 [12]): > 89.2 µM (inactive)
EC50 (Insulin-degrading enzyme [13]): 6.73 µM (active)
CC50 [14]: 21.8 µM (active)
EC50 (Insulin-degrading enzyme [15]): 11.1 µM (inactive)
EC50 (HEK293 [16]): 20.4 µM (inactive)

O=C(NCc1cccnc1)c1ccc(=O)oc1
IC50 [17]: 140 µM (inactive)

COC(=O)c1coc(-c2cc3ccccc3s2)n1
EC50 [18]: > 100 µM (inactive)

OC[C@@H]1CN(Cc2ccc(-c3ccccc3)cc2)C[C@H](n2cnc3c(NC4CC4)ncnc32)O1
IC50 [19]: 16.9 µM (inactive)

C[C@@H]1CN([C@@H](C)CO)C(=O)c2cc(NC(=O)CCCN(C)C)ccc2O[C@@H](C)CCCCO[C@H]1CN(C)C(=O)Nc1cccc2ccccc12
AC50 [20]: 74.8 µM (active)
